Test results: patent US10463644B2, “Uses of sesquiterpene lactone compounds and their derivatives in drugs preparation” (ACCENDATECH, priority 2013, dated 2019)
Like-named read-outs stand apart in the source and are kept apart here.

Legend:
[1] = test system: TNF-α secreted by synoviocyte; assay: Content of TNF-α in culture supernatant of synoviocyte of RA model rats given test compound; assay type: in vivo; conditions: rat RA model, dose 30 mg/kg.2d; normal control 0.38 ± 0.027, NaCl 0.74 ± 0.098
Method in brief: (§1)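 Content of secreted TNF-α, PGE2 and IL-1β measured in supernatants of synoviocytes cultured from RA model rats. Animals dosed at 30 mg/kg.2d; normal control and NaCl groups included.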

[2] = test system: IL-1β secreted by synoviocyte; assay: Content of IL-1β in culture supernatant of synoviocyte of RA model rats given test compound; assay type: in vivo; conditions: rat RA model, dose 30 mg/kg.2d; normal control 0.16 ± 0.034, NaCl 0.49 ± 0.136
Method in brief: as §1

[3] = test system: PGE2 secreted by synoviocyte; assay: Content of PGE2 in culture supernatant of synoviocyte of RA model rats given test compound; assay type: in vivo; conditions: rat RA model, dose 30 mg/kg.2d; normal control 8.34 ± 1.29, NaCl 32.44 ± 10.32
Method in brief: as §1

cancer stem cells = assay: Survival rate of cancer stem cells after test compound is added (flow cytometry, Annexin V-FITC/PI, clinical specimen); assay type: cell-based, patient; conditions: Homo sapiens, 18 h
Method in brief: (§2)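 Steps: density-gradient isolation of mononuclear cells from fresh or cryopreserved clinical samples; 18-hour compound exposure at 1×10^6 cells/mL; staining for stem-cell surface markers, then Annexin V-FITC and PI; flow cytometric apoptosis analysis.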

cancer cells = assay: Survival rate of cancer cells after test compound is added (flow cytometry, Annexin V-FITC/PI, clinical specimen); assay type: cell-based, patient; conditions: Homo sapiens, 18 h, read-out: Survival rate (%) All cells (Stem cells and ordinary cells)
Method in brief: as §2

[4] = Head and neck squamous cell carcinomas

C=C1C(=O)O[C@@H]2[C@@H]3[C@@H](CCC34CC4)C3(CC[C@@H]12)CC3 [Compound 26]
91%: viability at 10 µM (cancer cells; Colon adenocarcinoma) | viability at 10 µM (cancer cells; [4]) | viability at 10 µM (cancer cells; Lung adenocarcinoma) | viability at 10 µM (cancer cells; Ovarian cancer) | viability at 10 µM (cancer cells; Retinoblastoma)
87%: viability at 10 µM (cancer stem cells; Gastrointestinal tumor) | viability at 10 µM (cancer stem cells; Glioma) | viability at 10 µM (cancer cells; Colorectal cancer) | viability at 20 µM (cancer cells; Glioma) | viability at 20 µM (cancer cells; Liver cancer) | viability at 20 µM (cancer cells; Lung adenocarcinoma) | viability at 20 µM (cancer cells; Skin cancer)
88%: viability at 10 µM (cancer stem cells; CML) | viability at 10 µM (cancer cells; Brain glioma) | viability at 10 µM (cancer cells; Gastric cancer) | viability at 20 µM (cancer cells; Gastrointestinal tumor) | viability at 20 µM (cancer cells; [4]) | viability at 10 µM (cancer cells; Laryngeal cancer) | viability at 10 µM (cancer cells; Lung cancer) | viability at 10 µM (cancer cells; Malignant melanoma)
90%: viability at 10 µM (cancer cells; Pancreatic cancer)
85%: viability at 10 µM (cancer stem cells; Breast cancer) | viability at 10 µM (cancer stem cells; Children hepatoblastoma) | viability at 10 µM (cancer stem cells; Lung adenocarcinoma) | viability at 10 µM (cancer stem cells; Nasopharynx cancer) | viability at 20 µM (cancer cells; AML) | viability at 20 µM (cancer cells; Brain glioma) | viability at 20 µM (cancer cells; Brain tumor) | viability at 20 µM (cancer cells; CLL) | viability at 20 µM (cancer cells; Retinoblastoma)
77%: viability at 20 µM (cancer stem cells; Gastric cancer) | viability at 20 µM (cancer stem cells; Pancreatic cancer) | viability at 20 µM (cancer stem cells; Prostate cancer)
86%: viability at 10 µM (cancer stem cells; AML) | viability at 10 µM (cancer stem cells; Colon adenocarcinoma) | viability at 10 µM (cancer stem cells; Ovarian cancer) | viability at 10 µM (cancer stem cells; Pancreatic cancer) | viability at 10 µM (cancer stem cells; Prostate cancer) | viability at 10 µM (cancer stem cells; Skin cancer) | viability at 20 µM (cancer cells; Breast cancer) | viability at 20 µM (cancer cells; Children hepatoblastoma) | viability at 20 µM (cancer cells; Malignant melanoma) | viability at 20 µM (cancer cells; Pancreatic cancer)
78%: viability at 20 µM (cancer stem cells; [4]) | viability at 20 µM (cancer stem cells; Lung cancer)
0.59 ± 0.051 ng/mL: Content of TNF-α in culture supernatant of synoviocyte (x ± s) [1]
25.61 ± 5.41 ng/mL: Content of PGE2 in culture supernatant of synoviocyte (x ± s) [3]
76%: viability at 20 µM (cancer stem cells; Brain glioma) | viability at 20 µM (cancer stem cells; CML) | viability at 20 µM (cancer stem cells; Glioma) | viability at 20 µM (cancer stem cells; Malignant melanoma)
79%: viability at 20 µM (cancer stem cells; Children hepatoblastoma) | viability at 10 µM (cancer stem cells; Colorectal cancer) | viability at 20 µM (cancer stem cells; Liver cancer) | viability at 20 µM (cancer cells; CML)
74%: viability at 20 µM (cancer stem cells; Breast cancer) | viability at 20 µM (cancer stem cells; CLL) | viability at 20 µM (cancer stem cells; Nasopharynx cancer) | viability at 20 µM (cancer stem cells; Retinoblastoma)
82%: viability at 20 µM (cancer stem cells; Gastrointestinal tumor) | viability at 10 µM (cancer stem cells; Liver cancer) | viability at 20 µM (cancer stem cells; Lung adenocarcinoma) | viability at 10 µM (cancer stem cells; Lung cancer) | viability at 10 µM (cancer stem cells; Malignant melanoma) | viability at 10 µM (cancer stem cells; Retinoblastoma) | viability at 20 µM (cancer cells; Laryngeal cancer)
92%: viability at 10 µM (cancer cells; CML) | viability at 10 µM (cancer cells; Prostate cancer)
75%: viability at 20 µM (cancer stem cells; Laryngeal cancer) | viability at 20 µM (cancer stem cells; Ovarian cancer) | viability at 20 µM (cancer stem cells; Skin cancer)
0.42 ± 0.052 ng/mL: Content of IL-1β in culture supernatant of synoviocyte (x ± s) [2]
84%: viability at 10 µM (cancer stem cells; Brain glioma) | viability at 10 µM (cancer stem cells; Brain tumor) | viability at 10 µM (cancer stem cells; CLL) | viability at 10 µM (cancer stem cells; [4]) | viability at 20 µM (cancer cells; Gastric cancer) | viability at 20 µM (cancer cells; Lung cancer) | viability at 20 µM (cancer cells; Ovarian cancer)
89%: viability at 10 µM (cancer cells; Brain tumor) | viability at 10 µM (cancer cells; Breast cancer) | viability at 20 µM (cancer cells; Colon adenocarcinoma) | viability at 10 µM (cancer cells; Liver cancer) | viability at 20 µM (cancer cells; Prostate cancer)
83%: viability at 10 µM (cancer stem cells; Gastric cancer)
80%: viability at 10 µM (cancer stem cells; Laryngeal cancer)
81%: viability at 20 µM (cancer stem cells; Colon adenocarcinoma) | viability at 20 µM (cancer cells; Colorectal cancer) | viability at 20 µM (cancer cells; Nasopharynx cancer)
73%: viability at 20 µM (cancer stem cells; AML) | viability at 20 µM (cancer stem cells; Brain tumor)
94%: viability at 10 µM (cancer cells; Glioma) | viability at 10 µM (cancer cells; Nasopharynx cancer) | viability at 10 µM (cancer cells; Skin cancer)
93%: viability at 10 µM (cancer cells; AML) | viability at 10 µM (cancer cells; CLL) | viability at 10 µM (cancer cells; Children hepatoblastoma) | viability at 10 µM (cancer cells; Gastrointestinal tumor)
72%: viability at 20 µM (cancer stem cells; Colorectal cancer)
